# Read-outs that look alike come from different tables or passages of the source.
# What was measured:
# [1] = biological target: recombinant PARP1 (AA662-1014) protein (Homo sapiens (Human), UniProt P09874); experiment: Tracer displacement fluorescence polarization assay; conditions: displacement of AlexaFluor488 tracer from NAD+-binding site, PARP1 25 nM
# Description: Example B. Tracer Displacement Fluorescence Polarization Assays
# Displacement of AlexaFlour488 marked tracer from the NAD+-binding site of recombinant PARP1 (AA662-1014) protein (OriGene, Cat #: AR09368PU-L) was measured in vitro using Fluorescence polarization assay. The reaction was carried out in assay buffer (50 mM TRIS-HCl pH 7.4-7.8, 150 mM NaCl, 10 mM MgCl2, 0.001% Triton-X). 2×PARP1 (final concentration 25 nM) was diluted in 1× Assay buffer and 10 μl of the solution per well was added into 384-well Black Non-Treated Reaction plate (Corning, Cat #4511). Plates were centrifuged for 1 min at 200 g. The compounds were prepared in a 384-well Diamond Well Plate (Axygen, Cat #P-384-120SQ-C-S) as 400× solutions in DMSO and were transferred into Reaction plate using the Biomek FX liquid handling system with intermediate dilution down to 10× working solution in assay buffer in a separate 384-well Diamond Well Plate (Axygen, Cat #P-384-120SQ-C-S) (2 μl per well). Plates were centrifuged for 1 min at 200 g and incubated for 15 min at room temperature in the dark. Then 8 μL per well of 2.5× Tracer AlexaFluor488 (final concentration 1 nM) diluted in 1× Assay buffer was added into Reaction plate. 1× Assay buffer was used to make blank samples for instrument calculations. Plates were incubated for 30 minutes at room temperature in the dark. Fluorescence polarization was measured using Microplate Reader (BMG, ClarioStar Plus). The % tracer displacement was used to calculate the IC50 values. The IC50 values are shown in Table A, wherein “A” corresponds to IC50<0.01 μM, “B” corresponds to 0.01 μM≤IC50<0.1 μM, “C” 0.1 μM≤IC50<[…], and “D” corresponds to […].
# MDA-MB-231 = experiment: Cellular growth inhibition assay (CellTiter-Glo); assay type: cell-based; conditions: Homo sapiens
# Description: Example E. Cellular Growth Inhibition Assay
# HEK293 (Institute of Cytology Russian Academy of Science), MDA-MB-231 (ATCC, CRM-HTB-26), HCC1395 (ATCC, CRL-2324), HCC1937 (ATCC, CRL-2336), UWB1.289+BRCA1 (ATCC, CRL-2946) were seeded at a density of 500 cells per well in a 384-well clear bottom plate (Greiner Cat #781090) in 45 μl total volume of DMEM (PanEco, Cat #C420) or RPMI (PanEco, Cat #C330) or RPMI/MEBM (Lonza, Cat #CC-3151+CC-4136) with 10% FBS (HyClone, Cat #SV30160.03). Cells were allowed to adhere overnight at 370 C, 5% CO2. 500× compounds solutions in DMSO (Sigma Cat #D2650) were prepared into Cmpnds plate (Diamond Well Plate, Axigen, Cat #P-384-120SQ-C-S) and DMSO only control was included. 1 μl of 500× compounds (Cmpnds plate) was added to 49 μl of culture medium into Dilution plate (Diamond Well Plate, Axigen, Cat #P-384-120SQ-C-S), mixed and then 5 μl of 10× compounds solutions were transferred to cells followed by centrifugation at 100 g for 1 min. Final DMSO concentration was 0.2%. After 3 days of incubation, 10 μl of 1× compounds were added to cells. […]
# recombinant Wee1 protein = recombinant Wee1 protein (Homo sapiens (Human), UniProt P30291); experiment: Wee1 enzymatic activity inhibition, ADP-Glo luminescence assay; assay type: biochemical; conditions: recombinant Wee1, PolyE4Y1 substrate, 1 h room temperature
# Chain of recombinant Wee1 protein (P30291 whole entry): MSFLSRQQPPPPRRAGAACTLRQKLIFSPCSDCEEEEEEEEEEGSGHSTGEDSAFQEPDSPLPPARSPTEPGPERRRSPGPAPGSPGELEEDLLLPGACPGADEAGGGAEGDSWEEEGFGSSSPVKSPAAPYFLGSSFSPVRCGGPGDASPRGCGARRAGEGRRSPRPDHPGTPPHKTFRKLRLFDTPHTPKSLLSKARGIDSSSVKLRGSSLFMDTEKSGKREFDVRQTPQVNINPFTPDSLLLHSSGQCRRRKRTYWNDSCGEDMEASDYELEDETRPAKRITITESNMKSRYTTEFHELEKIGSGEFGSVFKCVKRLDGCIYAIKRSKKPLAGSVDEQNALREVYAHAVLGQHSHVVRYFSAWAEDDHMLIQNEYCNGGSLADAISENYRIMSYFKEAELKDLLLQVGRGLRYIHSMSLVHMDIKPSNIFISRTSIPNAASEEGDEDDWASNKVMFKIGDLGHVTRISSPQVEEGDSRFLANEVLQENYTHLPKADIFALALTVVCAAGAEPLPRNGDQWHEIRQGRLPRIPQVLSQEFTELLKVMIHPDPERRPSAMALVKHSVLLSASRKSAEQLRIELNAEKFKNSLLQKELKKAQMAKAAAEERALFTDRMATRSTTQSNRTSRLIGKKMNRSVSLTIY
# Description: Example A. Primary Assay Used to Determine Potency of Wee1 Enzymatic Activity Inhibition
# Compound activity was determined using recombinant Wee1 protein (BPS, Cat #40412) and PolyE4Y1 Substrate (Poly(Glu,Tyr) sodium salt, Sigma, Cat #P0275-25MG) in an in vitro enzymatic reaction. The enzymatic assay used to determine activity was a Luminescence assay using a Microplate Reader (BMG, ClarioStar Plus). The enzymatic reaction was carried out in assay buffer (40 mM TRIS-HCl pH 7.4-7.6, 20 mM MgCl2, 0.05 mM DTT, 0.1 mg/ml BSA, 5 mM MnCl2). The compounds were dispensed on a 384 well Diamond Well Plate (Axigen, Cat #P-384-120SQ-C-S) using the Biomek FX liquid handling system at 100× solutions of compounds in DMSO. 2×Wee1-PolyE4Y1 mix (final concentration 0.85 ng/μl of Wee1 and 0.2 μg/μl of PolyE4Y1) was prepared in 1× Assay buffer and 5.5 μl of mixture per well was added into 384w white Reaction plate with NBS (Corning, Cat #4513). 5.5 μl of PolyE4Y1 substrate w/o Wee1 in 1× buffer was used for negative control. Plates were centrifuged for 1 min at 100 g. Next step the Compounds were added to Reaction plate using Biomek station via following steps: 1 μl of 100× compounds (in DMSO) were mixed thoroughly with 49 μl of 2×10 μM ATP in Assay Buffer, then 5.5 μl of this mixture was added to Reaction plate with 5.5 μl of Wee1-PolyE4Y1 mix. Plates were centrifuged for 1 min at 100 g and incubated for 1 h at room temperature. Next 3 μL of ADP-Glo reagent (Promega, ADP-Glo™ Kinase Assay, Cat #V9102) per well was added. Plates were incubated for 30 minutes at room temperature. Then 6 μL of Kinase detection reagent (Promega, ADP-Glo™ Kinase Assay, Cat #V9102) per well was added and the Luminescence was measured using Microplate Reader. The % inhibition was then used to calculate the IC50 values. The IC50 values are shown in Table A, wherein “A” corresponds to IC50<0.01 μM, “B” corresponds to 0.01 μM≤IC50<0.1 μM, “C” 0.1 μM≤IC50<1 μM, and “D” corresponds to […].
# Chain of recombinant PARP1 (AA662-1014) protein (P09874 662-1014): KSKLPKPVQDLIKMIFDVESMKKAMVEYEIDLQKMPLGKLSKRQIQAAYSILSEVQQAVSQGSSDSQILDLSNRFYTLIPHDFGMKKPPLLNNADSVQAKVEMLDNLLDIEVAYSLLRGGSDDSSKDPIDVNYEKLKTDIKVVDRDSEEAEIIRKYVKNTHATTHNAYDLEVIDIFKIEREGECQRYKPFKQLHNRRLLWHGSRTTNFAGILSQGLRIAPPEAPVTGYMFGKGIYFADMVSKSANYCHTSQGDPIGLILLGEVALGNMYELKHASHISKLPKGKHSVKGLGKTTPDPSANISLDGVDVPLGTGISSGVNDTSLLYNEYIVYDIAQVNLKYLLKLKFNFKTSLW
Structure (SMILES),EC50 [1] [nM],"EC50 (MDA-MB-231; 120 h, MDA-MB-231, 5 days, read-out: MDA-MB-231 EC50 (μM) 5 days) [µM]","EC50 (MDA-MB-231; 168 h, MDA-MB-231, 7 days, read-out: MDA-MB-231 EC50 (μM) 7 days) [µM]","EC50 (MDA-MB-231; 240 h, MDA-MB-231, 10 days, read-out: MDA-MB-231 EC50 (μM) 10 days) [µM]",EC50 (recombinant Wee1 protein) [nM]
C=CCn1c(=O)c2cnc(Nc3ccc(N4CCN(C(=O)c5cc(Cc6n[nH]c(=O)c7ccccc67)ccc5F)CC4)cc3)nc2n1-c1cccc(C(C)(C)O)c1,< 10,0.69,0.66,0.11,
"COCCn1c(=O)c2cnc(Nc3ccc(N4CCN(C(=O)c5cc(Cc6n[nH]c(=O)c7ccccc67)ccc5F)CC4)cc3)nc2n1-c1cccc(C(C)(C)O)n1 [Compound 13, 4-(4-Fluoro-3-{[4-(4-{[1-[6-(1-hydroxy-1-methylethyl)pyridin-2-yl]-2-(2-methoxyethyl)-3-oxo-2,3-dihydro-1H-pyrazolo[3,4-d]pyrimidin-6-yl]amino}phenyl)piperazin-1-yl]carbonyl}benzyl)phthalazin-1(2H)-one]",< 10,,,,10 to 100
"C=CCn1c(=O)c2cnc(Nc3ccc(N4CCN(Cc5cc(Cc6n[nH]c(=O)c7ccccc67)ccc5F)CC4)cc3)nc2n1-c1cccc(C(C)(C)O)n1 [Compound 14, 4-[3-({4-[4-({2-Allyl-1-[6-(1-hydroxy-1-methylethyl)pyridin-2-yl]-3-oxo-2,3-dihydro-1H-pyrazolo[3,4-d]pyrimidin-6-yl}amino)phenyl]piperazin-1-yl}methyl)-4-fluorobenzyl]phthalazin-1(2H)-one]",100 to 1000,,,,10 to 100
"O=C(c1cc(Cc2n[nH]c(=O)c3ccccc23)ccc1F)N1CCN(c2ccc(Nc3ncc4c(=O)n(CCO)n(-c5ccccn5)c4n3)cc2)CC1 [Compound 15, 4-(4-Fluoro-3-{[4-(4-{[2-(2-hydroxyethyl)-3-oxo-1-pyridin-2-yl-2,3-dihydro-1H-pyrazolo[3,4-d]pyrimidin-6-yl]amino}phenyl)piperazin-1-yl]carbonyl}benzyl)phthalazin-1(2H)-one]",< 10,,,,100 to 1000
"Cn1c(=O)c2cnc(Nc3ccc(N4CCN(Cc5ccc(-c6[nH]c7cc(F)cc8c7c6CCNC8=O)cc5)CC4)cc3)nc2n1-c1ccccn1 [Compound 36, 8-Fluoro-2-{4-[(4-{4-[(2-methyl-3-oxo-1-pyridin-2-yl-2,3-dihydro-1H-pyrazolo[3,4-d]pyrimidin-6-yl)amino]phenyl}piperazin-1-yl)methyl]phenyl}-1,3,4,5-tetrahydro-6H-azepino[5,4,3-cd]indol-6-one]",< 10,,,,10 to 100
"COCCn1c(=O)c2cnc(Nc3ccc(N4CCN(Cc5ccc(-c6[nH]c7cc(F)cc8c7c6CCNC8=O)cc5)CC4)cc3)nc2n1-c1ccccn1 [Compound 38, 8-Fluoro-2-(4-{[4-(4-{[2-(2-methoxyethyl)-3-oxo-1-pyridin-2-yl-2,3-dihydro-1H-pyrazolo[3,4-d]pyrimidin-6-yl]amino}phenyl)piperazin-1-yl]methyl}phenyl)-1,3,4,5-tetrahydro-6H-azepino[5,4,3-cd]indol-6-one]",10 to 100,,,,100 to 1000
"Cn1c(=O)c2cnc(Nc3ccc(N4CCN(Cc5ccc(-c6[nH]c7cc(F)cc8c7c6CCNC8=O)cc5)CC4)cc3)nc2n1-c1cccc(C(C)(C)O)n1 [Compound 40, 8-Fluoro-2-[4-({4-[4-({1-[6-(1-hydroxy-1-methylethyl)pyridin-2-yl]-2-methyl-3-oxo-2,3-dihydro-1H-pyrazolo[3,4-d]pyrimidin-6-yl}amino)phenyl]piperazin-1-yl}methyl)phenyl]-1,3,4,5-tetrahydro-6H-azepino[5,4,3-cd]indol-6-one]",10 to 100,,,,10 to 100
Cn1c(=O)c2cnc(Nc3ccc(N4CCC(n5cc6cccc(C(N)=O)c6n5)CC4)cc3)nc2n1-c1ccccn1 [Compound 83],10 to 100,,,,10 to 100
Cn1c2nc(Nc3ccc(N4CCC(n5cc6cccc(C(N)=O)c6n5)CC4)cc3)ncc2c(=O)n1-c1ccccn1 [Compound 86],10 to 100,,,,100 to 1000
Cn1c2nc(Nc3ccc(N4CCCC(c5nc6cccc(C(N)=O)c6[nH]5)C4)cc3)ncc2c(=O)n1-c1ccccn1 (stereo not drawn) [Compound 97],10 to 100,,,,100 to 1000

# Second part, the molecule after the results:
EC50 [1] [nM],"EC50 (MDA-MB-231; 120 h, MDA-MB-231, 5 days, read-out: MDA-MB-231 EC50 (μM) 5 days) [µM]","EC50 (MDA-MB-231; 168 h, MDA-MB-231, 7 days, read-out: MDA-MB-231 EC50 (μM) 7 days) [µM]","EC50 (MDA-MB-231; 240 h, MDA-MB-231, 10 days, read-out: MDA-MB-231 EC50 (μM) 10 days) [µM]",EC50 (recombinant Wee1 protein) [nM],Structure (SMILES)
< 10,,,,10 to 100,"COCCn1c(=O)c2cnc(Nc3ccc(N4CCN(C(=O)c5cc(Cc6n[nH]c(=O)c7ccccc67)ccc5F)CC4)cc3)nc2n1-c1ccccn1 [Compound 9, 4-(4-Fluoro-3-{[4-(4-{[2-(2-methoxyethyl)-3-oxo-1-pyridin-2-yl-2,3-dihydro-1H-pyrazolo[3,4-d]pyrimidin-6-yl]amino}phenyl)piperazin-1-yl]carbonyl}benzyl)phthalazin-1(2H)-one]"
< 10,,,,100 to 1000,"Cn1c(=O)c2cnc(Nc3ccc(N4CCN(C(=O)c5cc(Cn6c(=O)[nH]c(=O)c7c(F)cccc76)ccc5F)CC4)cc3)nc2n1-c1ncccn1 [Compound 29, 5-Fluoro-1-{4-fluoro-3-[(4-{4-[(2-methyl-3-oxo-1-pyrimidin-2-yl-2,3-dihydro-1H-pyrazolo[3,4-d]pyrimidin-6-yl)amino]phenyl}piperazin-1-yl)carbonyl]benzyl}quinazoline-2,4(1H,3H)-dione]"
< 10,,,,≥ 1,"C=CCn1c(=O)c2cnc(N3CCN(Cc4ccc(-c5[nH]c6cc(F)cc7c6c5CCNC7=O)cc4)CC3)nc2n1-c1cccc(C(C)(C)O)n1 [Compound 44, 2-{4-[(4-{2-Allyl-1-[6-(1-hydroxy-1-methylethyl)pyridin-2-yl]-3-oxo-2,3-dihydro-1H-pyrazolo[3,4-d]pyrimidin-6-yl}piperazin-1-yl)methyl]phenyl}-8-fluoro-1,3,4,5-tetrahydro-6H-azepino[5,4,3-cd]indol-6-one]"
10 to 100,,,,10 to 100,"Cn1c(=O)c2cnc(Nc3ccc(N4CCC(c5nc6cccc(C(N)=O)c6[nH]5)CC4)cc3)nc2n1-c1ccccn1 [Compound 95, 2-[1-[4-[[2-methyl-3-oxo-1-(2-pyridyl)pyrazolo[3,4-d]pyrimidin-6-yl]amino]phenyl]-4-piperidyl]-3H-benzimidazole-4-carboxamide]"
